Experimental data published in article PMC8069330, “Chirality of Novel Bitopic Agonists Determines Unique Pharmacology at the Dopamine D3 Receptor” (Biomolecules, 2021).

Key:
Format in all cases: cell-based
D3R [1] = biological target: T1, D3R (Homo sapiens, UniProt P35462); test: BRET-based Go protein activation assay at D3R (10 min); conditions: for Selectivity (D2R/D3R) Go Protein Activation: D3R over D2R selectivity; for EC50: read-out: Go Protein Activation Assay pEC50 ± SEM (converted); for Bias Factors D3R: Go protein vs β-arrestin, log10(Emax/EC50)G protein − log10(Emax/EC50)β arrestin
T1 construct: expressed in transfected cells; host or cells: HEK293T
Target sequence in this assay (P35462 whole entry): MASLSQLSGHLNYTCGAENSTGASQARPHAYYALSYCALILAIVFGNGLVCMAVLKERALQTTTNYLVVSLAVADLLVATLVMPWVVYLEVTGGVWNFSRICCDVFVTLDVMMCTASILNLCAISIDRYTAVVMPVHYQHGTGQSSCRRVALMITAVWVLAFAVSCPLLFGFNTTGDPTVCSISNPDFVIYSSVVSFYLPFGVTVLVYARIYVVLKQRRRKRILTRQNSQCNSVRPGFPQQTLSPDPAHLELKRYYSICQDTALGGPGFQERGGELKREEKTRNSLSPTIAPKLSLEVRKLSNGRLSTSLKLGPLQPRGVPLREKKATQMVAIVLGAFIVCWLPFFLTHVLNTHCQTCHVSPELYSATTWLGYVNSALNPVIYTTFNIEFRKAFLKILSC

D3R [2] = biological target: T1, D3R; test: BRET-based β-arrestin recruitment assay at D3R (10 min); conditions: D3R; for EC50: read-out: β-arrestin Recruitment pEC50 ± SEM (converted)
Target sequence in this assay (P35462 whole entry): as above
Target sequence in this assay (P32121 whole entry partner): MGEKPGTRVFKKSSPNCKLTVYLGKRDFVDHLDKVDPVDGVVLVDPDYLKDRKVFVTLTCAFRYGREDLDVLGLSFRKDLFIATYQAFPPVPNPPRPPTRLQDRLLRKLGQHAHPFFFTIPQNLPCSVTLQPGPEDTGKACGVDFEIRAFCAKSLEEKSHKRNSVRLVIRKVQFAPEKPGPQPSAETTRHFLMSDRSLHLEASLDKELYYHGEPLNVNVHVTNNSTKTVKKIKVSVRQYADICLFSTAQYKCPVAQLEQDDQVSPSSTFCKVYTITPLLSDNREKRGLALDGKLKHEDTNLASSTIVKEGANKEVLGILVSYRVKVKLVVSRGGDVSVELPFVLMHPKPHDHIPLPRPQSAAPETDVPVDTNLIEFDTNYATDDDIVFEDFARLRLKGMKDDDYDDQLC

D2R [3] = biological target: T2, D2R (Homo sapiens, UniProt P14416); test: BRET-based Go protein activation assay at D2R (10 min); conditions: 10 min; for EC50: read-out: Go Protein Activation Assay pEC50 ± SEM (converted); for Bias Factors D2R: Go protein vs β-arrestin, log10(Emax/EC50)G protein − log10(Emax/EC50)β arrestin
T2 construct: expressed in transfected cells; host or cells: HEK293T
Target sequence in this assay (P14416 whole entry): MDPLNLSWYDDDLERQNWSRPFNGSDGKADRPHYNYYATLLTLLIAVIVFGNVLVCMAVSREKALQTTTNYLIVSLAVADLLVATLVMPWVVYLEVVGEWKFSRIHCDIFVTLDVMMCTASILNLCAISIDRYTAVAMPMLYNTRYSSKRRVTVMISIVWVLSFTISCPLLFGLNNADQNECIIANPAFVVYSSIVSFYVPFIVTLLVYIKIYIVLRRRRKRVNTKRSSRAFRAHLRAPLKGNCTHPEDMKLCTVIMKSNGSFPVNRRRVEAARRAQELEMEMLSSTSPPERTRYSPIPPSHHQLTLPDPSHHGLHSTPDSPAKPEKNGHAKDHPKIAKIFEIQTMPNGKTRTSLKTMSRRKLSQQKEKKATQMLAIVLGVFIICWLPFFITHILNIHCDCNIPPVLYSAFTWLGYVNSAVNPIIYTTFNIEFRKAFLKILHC

D2R [4] = biological target: T2, D2R; test: BRET-based β-arrestin recruitment assay at D2R (10 min); conditions: D2R, 10 min; for EC50: read-out: β-arrestin Recruitment pEC50 ± SEM (converted)
Target sequence in this assay (P14416 whole entry): as above
Target sequence in this assay (P32121 whole entry partner): as the sequence (P32121 whole entry partner) above

Row | Go Protein Activation Assay Change Emax over Quinpirole (D3R [1]; D3R) | Go Protein Activation Assay Emax ± SEM (% of Quinpirole) (D3R [1]; D3R) | Go Protein Activation Assay Fold Potency over Quinpirole (D3R [1]; D3R) | Selectivity (D2R/D3R) Go Protein Activation (D3R [1]) | EC50 (D3R [1]; D3R) | Bias Factors D3R (D3R [1]) | β-arrestin Recruitment Change Emax over Quinpirole (D3R [2]) | β-arrestin Recruitment Fold Potency over Quinpirole (D3R [2]) | EC50 (D3R [2]) | Go Protein Activation Assay Change Emax over Quinpirole (D2R [3]; D2R) | Go Protein Activation Assay Emax ± SEM (% of Quinpirole) (D2R [3]; D2R) | Go Protein Activation Assay Fold Potency over Quinpirole (D2R [3]; D2R) | EC50 (D2R [3]; D2R) | Bias Factors D2R (D2R [3]) | β-arrestin Recruitment Change Emax over Quinpirole (D2R [4]) | β-arrestin Recruitment Emax ± SEM (% of Quinpirole) (D2R [4]) | β-arrestin Recruitment Fold Potency over Quinpirole (D2R [4]) | EC50 (D2R [4]) | SMILES | further results
1 | −6.1 | 93.9 ± 3.0 ^δδδδ % of Quinpirole | 0.051 fold | 5.8 fold | 57.5 nM | 0.9 | −5.2 | 0.009 fold | 490 nM | −24.10 | 75.9 ± 5.3 % of Quinpirole | 0.10 fold | 331 nM | 0.6 | 2.80 | 102.8 ± 2.5 % of Quinpirole | 0.06 fold | 1820 nM | C[C@H]1COC(c2ccc(N)nc2)CN1CCCCOc1ccc2c(c1)NC(=O)CC2 (mixture of isomers) [rac-AB04-35] | β-arrestin Recruitment Emax ± SEM (% of Quinpirole) (D3R [2]): 94.8 ± 3.7 ^δδ % of Quinpirole
2 | – | – | – | – | – | – | – | – | – | – | – | – | – | – | – | – | – | – | C[C@H]1CO[C@H](c2ccc(N)nc2)CN1CCCCOc1ccc2c(c1)NC(=O)CC2 [AB04-95] | D3R mediated Go protein activation (result in words) (D3R [1]; D3R): near complete abolishment; D3R mediated β-arrestin recruitment (result in words) (D3R [2]): near complete abolishment; Activity in D2R Go protein activation (result in words) (D2R [3]; D2R): did not show any activity; Activity in D2R β-arrestin recruitment (result in words) (D2R [4]): did not show any activity
3 | 0.4 | 100.4 ± 2.7 ^δδδδ % of Quinpirole | 0.158 fold | 2.8 fold | 18.6 nM | 1.0 | 4.0 | 0.025 fold | 174 nM | 2.70 | 102.7 ± 4.0 % of Quinpirole | 0.66 fold | 52.5 nM | 1.1 | 21.6 | 121.6 ± 8.2 % of Quinpirole | 0.16 fold | 724 nM | C[C@H]1CO[C@@H](c2ccc(N)nc2)CN1CCCCOc1ccc2c(c1)NC(=O)CC2 [AB04-96] | Higher efficacy compared to quinpirole in D2R mediated β-arrestin recruitment (D2R [4]): ~ 22%
